Experimental data taken from patent US20250064712A1, “METHOD FOR AMPLIFYING EXPRESSION OF EPIDERMAL BARRIER FUNCTION-RELATED GENE” (J-Network, Inc., priority 2023, published 2025).

Columns and labels:
[1] = system: LOR gene; experiment: Test for amplification of mRNA expression of LOR gene (quantitative real-time PCR, GAPDH internal standard); type: cell-based, human; conditions: NHEKs, GDM12 100 μM, culture time 30 hr, control = 1
Procedure: (§1) Normal human epidermal keratinocytes (NHEKs) were seeded on a 96-well plate at a cell density of 2.0×10^4cells/well using HuMedia-KG2 medium (manufactured by Kurabo Industries Ltd.), and cultured under the conditions of 37° C. and 5% CO2 for 24 hours.
(§2) Thereafter, a diacylglycerol PEG adduct was added thereto using HuMedia-KB2 medium (manufactured by Kurabo Industries Ltd.), and each was cultured under the conditions of 37° C. and 5% CO2 for a predetermined time. Table 1 represents the target gene, the types of diacylglycerol PEG adduct added, the adding amount, and the culture time. A control (no addition) was also cultured under the same conditions.
(§3) After the cells were cultured for each predetermined time, RNA was extracted from the cells of each sample and control. The extracted RNA was reverse-transcribed to prepare cDNA, and the mRNA of the target gene was quantified by quantitative real-time PCR expression analysis. GAPDH (glyceraldehyde 3-phosphate dehydrogenase) was used as an internal standard.
(§4) In the analysis, the mRNA expression level of each target gene was corrected with the value of the expression level of GAPDH, which is an internal standard in the same sample, and the correction value of the sample was calculated as a relative expression level when the correction value of the control was set to 1.

[2] = system: IVL gene; experiment: Test for amplification of mRNA expression of IVL gene (quantitative real-time PCR, GAPDH internal standard); type: cell-based, human; conditions: NHEKs, GDM12 100 μM, culture time 30 hr, control = 1
Procedure: as §1, §2, §3, §4

[3] = system: SULT2B1 gene; experiment: Test for amplification of mRNA expression of SULT2B1 gene (quantitative real-time PCR, GAPDH internal standard); type: cell-based, human; conditions: NHEKs, control = 1
Procedure: as §1, §2, §3, §4

[4] = system: loricrin; experiment: Test for detecting production of loricrin, loricrin immunostaining method; type: cell-based, human; conditions: LabCyte EPI-MODEL24 6D, 50 μL of 2% GDS23 solution applied for 24 hours, collected 9 days after application, vs purified water control
Procedure: A test for detecting the production of loricrin encoded by the LOR genes was performed using two staining methods: an immunostaining method using an anti-loricrin antibody and a hematoxylin-eosin staining method.
Treatment of epidermal model Three-dimensional cultured human epidermal model (LabCyte EPI-MODEL24 6D: manufactured by Japan Tissue Engineering Co., Ltd.) was cultured in a medium (assay medium: manufactured by Japan Tissue Engineering Co., Ltd.) at 37° C. for 24 hours. […]
After the blocking agent was aspirated, an anti-loricrin antibody (manufactured by Proteintech Japan) (diluted 50 times with a 3% BSA/PBS solution) was added to the section, and the primary antibody reaction was carried out overnight at 4° C. Thereafter, a Goat Anti-Rabbit IgG H&L (Alexa Fluor (registered trademark) 488 antibody (manufactured by Abcam PLC) (diluted 250 times with a 3% BSA/PBS solution) was added thereto, and the secondary antibody reaction was carried out for 1 hour at room temperature in a dark place. And then, nuclear staining was performed with DAPI diluted 200 times with a 3% BSA/PBS solution. A fluorescence microscope (BZ-X810, KEYENCE) was then used to observe the green and blue fluorescence. The green fluorescence indicates the presence of loricrin. The blue fluorescence stains the nuclei of the epidermal model to confirm that the cells are normal.

[5] = system: CERS3 gene; experiment: Test for amplification of mRNA expression of CERS3 gene (quantitative real-time PCR, GAPDH internal standard); type: cell-based, human; conditions: NHEKs, GDS23 50 μM, culture time 36 hr, control = 1
Procedure: as §1, §2, §3, §4

[6] = system: Three-dimensional cultured human epidermal model; experiment: Hematoxylin-eosin staining and DAPI nuclear staining of epidermal model (cell abnormality check); type: cell-based; conditions: LabCyte EPI-MODEL24 6D, 50 μL of 2% GDS23 solution applied for 24 hours, collected 9 days after application
Procedure: Treatment of epidermal model Three-dimensional cultured human epidermal model (LabCyte EPI-MODEL24 6D: manufactured by Japan Tissue Engineering Co., Ltd.) was cultured in a medium (assay medium: manufactured by Japan Tissue Engineering Co., Ltd.) at 37° C. for 24 hours.
Thereafter, the medium was exchanged, and 50 μL of a sample prepared with purified water (2% preparation solution of GDS23) was applied to the surfaces of the stratum corneum, followed by continuous culture for 24 hours. The control for comparison was applied with purified water only.
Subsequently, the sample on the surface of the stratum corneum of the epidermal model was sucked up with a sterilized cotton swab to remove the excess sample, and then the epidermal model was continuously cultured without newly applying the sample on the surface of the stratum corneum, and the epidermal model was collected 9 days after the sample was applied.
After the blocking agent was aspirated, an anti-loricrin antibody (manufactured by Proteintech Japan) (diluted 50 times with a 3% BSA/PBS solution) was added to the section, and the primary antibody reaction was carried out overnight at 4° C. […]

[7] = system: PPARA gene; experiment: Test for amplification of mRNA expression of PPARA gene (quantitative real-time PCR, GAPDH internal standard); type: cell-based, human; conditions: NHEKs, GDS23 50 μM, culture time 24, 30, 36 hr, control = 1
Procedure: as §1, §2, §3, §4

Substance	relative expression level of LOR genes [1]	relative expression level of IVL genes [2]	relative expression level of SULT2B1 genes ([3]; GDM12 100 μM, culture time 30 hr)	production amount of loricrin in the stratum corneum (green fluorescence) [4]	relative expression level of CERS3 genes [5]	relative expression level of SULT2B1 genes ([3]; GDS23 50 μM, culture time 24 hr)	abnormality in the cells of the epidermal model (blue fluorescence, hematoxylin-eosin staining) [6]	relative expression level of PPARA genes [7]
PEG-12 glycerol dimyristate [GDM12]	about 1.3 times that of the control	about 1.5 times that of the control	about 1.6 times that of the control					
PEG-23 glycerol distearate [GDS23]				higher than that of the control epidermal model	about 2 times that of the control	about 1.2 times that of the control	no abnormality in the cells of the epidermal model	about 2.2 times that of the control
